Assays:
Assay type in all cases: in vivo
[1] = tested on: DSS induced ulcerative colitis in C57 mice; experiment: Apremilast and Rifaximin alone and as fixed dose combination (FDC) in DSS induced ulcerative colitis in C57 mice (Example 8); details: for % change in DAI vs DSS vehicle control / % change in bleeding score vs DSS vehicle control / The rectal bleeding score, Day-6 / The disease activity index (DAI) score, Day-6: Day-6, Rifaximin 102.8 mg/kg p.o. BID, Apremilast 2.1 mg/kg p.o. BID, alone or combined; for The disease activity index (DAI) score, Day-6: six days, 2.5% DSS; for improvement in disease activity index (DAI) score / improvement in rectal bleeding: Example 8, Apremilast equivalent to 10 mg, Rifaximin equivalent to 500 mg human dose
Protocol: In this study, we have used Apremilast which is equivalent to 10 mg of human dose and Rifaximin which is equivalent to 500 mg of human dose in animal model, which is DSS (Dextran sulfate sodium) induced ulcerative colitis in C57 mice (Br J Pharmacol. 2019 July; 176 (13): 2209-2226. doi: 10.1111/bph.14667. Epub 2019 May 17). The colitis induced by
C57 mice of 9-10 weeks age were used for this study. On the day of study initiation (day-0) animals were randomized based on their body weight in to different treatment groups as below:
On day-0 animals were randomized based on body weight and from the same day onwards animals were administered with 2.5% DSS in RO water along with the test compounds till day-6. The test compounds were formulated in Tween 80 and 0.5% Na. CMC in (0.5:99.50%) ratio and oral administration was done twice a day for six days. During the duration of the experiment, a disease activity index (DAI) score was assessed to evaluate the clinical progression of ulcerative colitis.
The DAI was calculated by grading on a scale of 0-5 using the following parameters: loss of body weight (0=normal; 1=0-5%; 2=6-10%; 3=11-15%; 4=16-20%, 5=>20%), stool consistency (0=normal; 1=soft stools; 2=loose stools; 3=watery diarrhea) and rectal bleeding (0=none; 2=presence of hemoccult; 4=severe bleeding). (Ref: Cytokine 2014, 66, 30-39).
(§1) On the day of termination (Day-6), DAI score was assessed followed by nonfasted blood collection. Then animals were sacrificed and relevant tissues were collected in 10% formalin for histological analysis or snap frozen in liquid nitrogen for other assays.
(§2) With the help of MS Excel, percent change vs disease control (DSS vehicle control) in various parameters were calculated and statistical analysis was performed using graph pad prism software.

[2] = tested on: DSS induced ulcerative colitis in C57 mice; experiment: Apremilast and Rifaximin alone and in combination in DSS induced ulcerative colitis in C57 mice (Example 7); details: for % change in DAI vs DSS vehicle control / % change in bleeding score vs DSS vehicle control / The rectal bleeding score, Day-6 / The disease activity index (DAI) score, Day-6: Day-6, Rifaximin 19 mg/kg p.o., Apremilast 12.5 mg/kg p.o., alone or combined, once a day for six days; for The disease activity index (DAI) score, Day-6: 2.5% DSS; for improvement in disease activity index (DAI) score: Example 7, Apremilast human equivalent mice dose, low dose of Rifaximin
Source text: (§3) In this study, we have used human equivalent mice dose of Apremilast and very ( 1/18th-fold) low dose of Rifaximin in animal model, which is DSS (Dextran sulfate sodium) induced ulcerative colitis in C57 mice (Br J Pharmacol. 2019 July; 176 (13): 2209-2226. doi: 10.1111/bph.14667. Epub 2019 May 17). The colitis induced by DSS, presents good reproducibility and also mimics clinical symptoms, inflammatory markers and histopathological features which is similar to IBD in humans (Cell Mol Gastroenterol Hepatol. 2015 Mar. 1; 1 (2): 154-170. doi: 10.1016/j.jcmgh.2015.01.006., Arq Gastroenterol. 2014 April-June; 51 (2): 107-12. doi: 10.1590/s0004-28032014000200007. PMID: 25003261).
(§4) C57 mice of 10-12 weeks age were used for this study. On the day of study initiation (day-0) animals were randomized based on their body weight in to different treatment groups as below:
(§5) On day-0 animals were randomized based on body weight and from the same day onwards animals were administered with 2.5% DSS in RO water along with the test compounds till day-6.
(§6) The test compounds were formulated in Tween 80 and 0.5% Na. CMC in (0.5:99.50%) ratio and oral administration was done once a day for six days. During the duration of the experiment, a disease activity index (DAI) score was assessed to evaluate the clinical progression of ulcerative colitis. The DAI was calculated by grading on a scale of 0-5 using the following parameters: loss of body weight (0=normal; 1=0-5%; 2=6-10%; 3=11-15%; 4=16-20%, 5=>20%), stool consistency (0=normal; 1=soft stools; 2=loose stools; 3=watery diarrhea) and rectal bleeding (0=none; 2=presence of hemoccult; 4=severe bleeding). (Ref: Cytokine 2014, 66, 30-39).
as §1, §2

[3] = tested on: DSS induced ulcerative colitis in C57 mice; experiment: ADD ON effect of FDC with Mesalamine in DSS induced ulcerative colitis in C57 mice (Example 10)
Protocol: as §3, with “To study the ADD ON effect of FDC (combination” for “In this study, we have used human equivalent mice dose”, “Apremilast equivalent to 15 mg” for “Apremilast”, “Rifaximin equivalent to 500 mg of human dose) with mesalamine equivalent to 800 mg of human” for “very ( 1/18th-fold) low”, “dose” for “dose of Rifaximin”
as §4, §5
as §6, with “twice” for “once”
On the day of termination (Day-6), DAI score was assessed followed by nonfasted blood collection. Then animals were sacrificed, colon length was measured and then collected in 10% formalin for histological analysis or snap frozen in liquid nitrogen for other assays.
With the help of MS Excel, percent change vs disease control (DSS vehicle control) in various parameters were calculated and statistical analysis was performed using graph pad prism software. Percentage improvement of colon length was calculated by calculating the decrease in colon length due to disease from water vehicle control group and then improvement in colon length against DSS vehicle control group by considering the colon length of water vehicle control group as 100%.

[4] = Day-6, Mesalamine 164.4 mg/kg p.o. BID, FDC = Rifaximin 102.8 mg/kg + Apremilast 3.1 mg/kg p.o. BID

| SMILES | % change in DAI vs DSS vehicle control [1] [%] | % change in bleeding score vs DSS vehicle control [1] [%] | The rectal bleeding score, Day-6 [1] | The disease activity index (DAI) score, Day-6 [1] | improvement in disease activity index (DAI) score [1] [%] | improvement in rectal bleeding [1] [%] | % change in DAI vs DSS vehicle control [2] [%] | % change in bleeding score vs DSS vehicle control [2] [%] | The rectal bleeding score, Day-6 [2] | The disease activity index (DAI) score, Day-6 [2] | improvement in disease activity index (DAI) score [2] | % change in DAI vs DSS vehicle control [3, 4] [%] | % improvement in colon length vs DSS vehicle control [3, 4] [%] | The Colon length, Day-6 [3, 4] [cm] | The disease activity index (DAI) score, Day-6 ([3]; Day-6, Mesalamine 164.4 mg/kg p.o. BID, FDC = Rifaximin 102.8 mg/kg + Apremilast 3.1 mg/kg p.o. BID, six days) | improvement in disease activity index (DAI) score ([3]; Mesalamine equivalent to 800 mg, FDC = Apremilast equivalent to 15 mg and Rifaximin equivalent to 500 mg of human dose) [%] |
| --- | --- | --- | --- | --- | --- | --- | --- | --- | --- | --- | --- | --- | --- | --- | --- | --- |
| CCOc1cc(C(CS(C)(=O)=O)N2C(=O)c3cccc(NC(C)=O)c3C2=O)ccc1OC (single isomer, unassigned; (+)) [Apremilast, (+)-2-[1-(3-ethoxy-4-methoxyphenyl)-2-methylsulfonylethyl]-4-acetylaminoisoindoline-1,3-dione] | −11.5 ± 9.5 | −16.7 ± 17.6 | 2.0 ± 0.4 | 6.9 ± 0.7 | 12 | 17 | −32.8 ± 16.7 | −57.1 ± 21.8 | 1.2 ± 0.6 | 4.1 ± 1.0 | 32.8% | – | – | – | – | – |
| Nc1ccc(O)c(C(=O)O)c1 [Mesalamine] | – | – | – | – | – | – | – | – | – | – | – | −40.2 ± 5.0 | 39.3 ± 11.0 | 6.3 ± 0.2 | 3.1 ± 0.3 | 40 |
| CO[C@H]1/C=C/O[C@@]2(C)Oc3c(C)c(O)c4c(O)c(c5c(nc6cc(C)ccn65)c4c3C2=O)NC(=O)/C(C)=C\C=C\[C@H](C)[C@H](O)[C@@H](C)[C@@H](O)[C@@H](C)[C@H](OC(C)=O)[C@@H]1C [Rifaximin] | −17.9 ± 11.2 | −16.7 ± 21.5 | 2.0 ± 0.5 | 6.4 ± 0.9 | 18 | 17 | −3.3 ± 11.8 | −39.3 ± 16.9 | 1.7 ± 0.5 | 5.9 ± 0.7 | didn't show any improvement | – | – | – | – | – |

From patent US20240415809A1, “PHARMACEUTICAL COMBINATIONS” (ZYDUS LIFESCIENCES LIMITED, priority 2021, published 2024)
